Results: US20200000704A1, “DEGRADATION INHIBITOR OF HYALURONIC ACID, COMPRISING ROSEMARY EXTRACT AND RETINOL ACETATE” (Shiseido Company, Ltd., priority 2012, published 2020)
“Also recorded” adds a separate entry of the source.

Test system: hyaluronidase
Assay: Examination for inhibiting hyaluronic acid degradation (hyaluronidase inhibition, p-DMAB colour reaction, OD 585 nm)
Format: biochemical
Conditions: final concentration: rosemary extract BG 0.000165 w/w % at dry weight, retinol acetate 0.0000516 w/w %; substrate sodium hyaluronate; absorbance OD 585 nm with control (water) adjusted to 100; FIG. 1
Procedure: 50 μl hyaluronidase solution (1 mg/ml) (Sigma Aldrich Japan K.K.) was placed into a microtube, and 50 μl of an evaluation drug was added, and then the mixture was incubated for 10 min at 37° C. Rosemary extract BG (Maruzen Pharmaceuticals, Co., Ltd.), retinol acetate (BASF Japan Ltd.), and rosemary extract and retinol acetate were used as the evaluation drug, and water was used as a control instead of the evaluation agent. Rosemary extract BG was added so that the final concentration thereof after addition of hyaluronic acid sodium aqueous solution was 0.000165 w/w % at dry weight. Retinol acetate was added so that the final concentration thereof after addition of hyaluronic acid sodium aqueous solution was 0.0000516 w/w %. After incubation, 400 μl of 1 mg/ml sodium hyaluronate (Shiseido Co., Ltd., MW 1,100,000-1,600,000) was added to the solution, and then incubated at 37° C., for 10 min, and then 50 μl of sodium hydroxide (0.2 M) was added to stop the reaction. This solution was boiled for 3 min, then cooled with flowing water. 300 μl of 10% p-DMAB (dimethylaminobenzaldehyde) solution (NACALAI TESQUE, Inc.) was added to the solution, and then incubated for 37° C. for 20 min. After bringing it back to room temperature, 100 μl of each solution was poured into each well of 96 well-plate, and OD 585 nm was determined by using […] Pharma Biomedical Co., Ltd.).

retinol acetate
hyaluronidase inhibitory activity: does not have a hyaluronidase activity; also recorded: did not have a hyaluronidase inhibitory activity
